These compounds were tested against T1, ligand binding domain of human RORγ (A262-S507) (Homo sapiens, UniProt P51449) (assay: General RORγ SPA binding assay (competition with [3H]25-hydroxycholesterol)). Conditions: RORγ SPA binding assay, inhibition of [3H]25-hydroxycholesterol binding; read-out: IC50.
T1 construct: made in house; host or cells: E. coli
T1 sequence (P51449 262-507): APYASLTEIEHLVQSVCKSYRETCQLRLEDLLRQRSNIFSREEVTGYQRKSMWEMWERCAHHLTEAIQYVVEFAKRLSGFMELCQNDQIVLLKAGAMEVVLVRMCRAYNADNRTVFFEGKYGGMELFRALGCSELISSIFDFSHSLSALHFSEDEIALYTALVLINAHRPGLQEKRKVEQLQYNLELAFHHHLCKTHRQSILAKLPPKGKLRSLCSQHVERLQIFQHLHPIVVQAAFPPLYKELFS
In short: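 N-terminally His-tagged protein was expressed in E. coli and nickel-purified. Then 50 nM protein was preincubated with compound for 15 min at room temperature in PBS with 0.5% fatty acid free BSA, followed by radioligand for 15 min and copper His-tag SPA beads for 30 min. IC50 came from percent inhibition of binding.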
Work on C/C(=N\Oc1cccc(C(F)(F)F)c1)c1cnc(C)nc1C1CCN(C(=O)Cc2c(F)cccc2F)CC1 [Compound B3, (E)-2-(2,6-Difluorophenyl)-1-(4-(2-methyl-5-(1-(3-(trifluoromethyl)phenoxyimino)ethyl)pyrimidin-4-yl)piperidin-1-yl)ethanone] yielded an IC50 of 3.1 nM. In the case of C/C(=N/Oc1cccc(C(F)(F)F)c1)c1cnc(C)nc1C1CCN(C(=O)Cc2c(F)cccc2F)CC1 [Compound B4, (Z)-2-(2,6-Difluorophenyl)-1-(4-(2-methyl-5-(1-(3-(trifluoromethyl)phenoxyimino)ethyl)pyrimidin-4-yl)piperidin-1-yl)ethanone], the IC50 is reported as 137 nM. Work on C/C(=N\Oc1cccc(Cl)c1)c1cnc(C)nc1C1CCN(C(=O)Cc2c(F)cccc2F)CC1 [Compound B5, (E)-1-(4-(5-(1-((3-chlorophenoxy)imino)ethyl)-2-methylpyrimidin-4-yl)piperidin-1-yl)-2-(2,6-difluorophenyl)ethanone] yielded an IC50 of 2.5 nM. C/C(=N/Oc1cccc(Cl)c1)c1cnc(C)nc1C1CCN(C(=O)Cc2c(F)cccc2F)CC1 [Compound B6, (Z)-1-(4-(5-(1-((3-chlorophenoxy)imino)ethyl)-2-methylpyrimidin-4-yl)piperidin-1-yl)-2-(2,6-difluorophenyl)ethanone] gave an IC50 of 1930 nM. C/C(=N\Oc1cccc(OC(F)(F)F)c1)c1cnc(C)nc1C1CCN(C(=O)Cc2c(F)cccc2F)CC1 [Compound B7, (E)-2-(2,6-difluorophenyl)-1-(4-(2-methyl-5-(1-((3-(trifluoromethoxy)phenoxy)imino)ethyl)pyrimidin-4-yl)piperidin-1-yl)ethanone] showed an IC50 of 10.6 nM. C/C(=N/Oc1cccc(OC(F)(F)F)c1)c1cnc(C)nc1C1CCN(C(=O)Cc2c(F)cccc2F)CC1 [Compound B8, (Z)-2-(2,6-difluorophenyl)-1-(4-(2-methyl-5-(1-((3-(trifluoromethoxy)phenoxy)imino)ethyl)pyrimidin-4-yl)piperidin-1-yl)ethanone] was tested, and the IC50 was 1500 nM. C/C(=N\Oc1cc(C)cc(C)c1)c1cnc(C)nc1C1CCN(C(=O)Cc2c(F)cccc2F)CC1 [Compound B9, (E)-2-(2,6-difluorophenyl)-1-(4-(5-(1-((3,5-dimethylphenoxy)imino)ethyl)-2-methylpyrimidin-4-yl)piperidin-1-yl)ethanone] showed an IC50 of 2.7 nM. Work on C/C(=N/Oc1cc(C)cc(C)c1)c1cnc(C)nc1C1CCN(C(=O)Cc2c(F)cccc2F)CC1 [Compound B10, (Z)-2-(2,6-difluorophenyl)-1-(4-(5-(1-((3,5-dimethylphenoxy)imino)ethyl)-2-methylpyrimidin-4-yl)piperidin-1-yl)ethanone] yielded an IC50 of 1670 nM. For C/C(=N\Oc1cccc(C)c1)c1cnc(C)nc1C1CCN(C(=O)Cc2c(F)cccc2F)CC1 [Compound B11, (E)-2-(2,6-difluorophenyl)-1-(4-(2-methyl-5-(1-((m-tolyloxy)imino)ethyl)pyrimidin-4-yl)piperidin-1-yl)ethanone], the IC50 was 1.7 nM. For C/C(=N\Oc1cc(F)cc(Cl)c1)c1cnc(C)nc1C1CCN(C(=O)Cc2c(F)cccc2F)CC1 [Compound B12, (E)-1-(4-(5-(1-((3-chloro-5-fluorophenoxy)imino)ethyl)-2-methylpyrimidin-4-yl)piperidin-1-yl)-2-(2,6-difluorophenyl)ethanone], the IC50 was 2.2 nM. In the case of C/C(=N\Oc1ccnc(C#N)c1)c1cnc(C)nc1C1CCN(C(=O)Cc2c(F)cccc2F)CC1 [Compound B13, (E)-4-(((1-(4-(1-(2-(2,6-difluorophenyl)acetyl)piperidin-4-yl)-2-methylpyrimidin-5-yl)ethylidene)amino)oxy)picolinonitrile], the IC50 is reported as 4.7 nM. C/C(=N\Oc1ccnc(C(F)(F)F)c1)c1cnc(C)nc1C1CCN(C(=O)Cc2c(F)cccc2F)CC1 [Compound B14, (E)-2-(2,6-difluorophenyl)-1-(4-(2-methyl-5-(1-(((2-(trifluoromethyl)pyridin-4-yl)oxy)imino)ethyl)pyrimidin-4-yl)piperidin-1-yl)ethanone] gave an IC50 of 4.8 nM. C/C(=N\Oc1ccnc(Cl)c1)c1cnc(C)nc1C1CCN(C(=O)Cc2c(F)cccc2F)CC1 [Compound B15, (E)-1-(4-(5-(1-(((2-chloropyridin-4-yl)oxy)imino)ethyl)-2-methylpyrimidin-4-yl)piperidin-1-yl)-2-(2,6-difluorophenyl)ethanone] showed an IC50 of 5.1 nM. With C/C(=N\Oc1cccc(F)c1)c1cnc(C)nc1C1CCN(C(=O)Cc2c(F)cccc2F)CC1 [Compound B16, (E)-2-(2,6-difluorophenyl)-1-(4-(5-(1-((3-fluorophenoxy)imino)ethyl)-2-methylpyrimidin-4-yl)piperidin-1-yl)ethanone] the IC50 was 5.9 nM. C/C(=N\Oc1cc(F)ccc1C)c1cnc(C)nc1C1CCN(C(=O)Cc2c(F)cccc2F)CC1 [Compound B17, (E)-2-(2,6-difluorophenyl)-1-(4-(5-(1-((5-fluoro-2-methylphenoxy)imino)ethyl)-2-methylpyrimidin-4-yl)piperidin-1-yl)ethanone] was tested, and the IC50 was 9.3 nM. C/C(=N\Oc1cc(C)ccc1C)c1cnc(C)nc1C1CCN(C(=O)Cc2c(F)cccc2F)CC1 [Compound B18, (E)-2-(2,6-difluorophenyl)-1-(4-(5-(1-((2,5-dimethylphenoxy)imino)ethyl)-2-methylpyrimidin-4-yl)piperidin-1-yl)ethanone] gave an IC50 of 11.2 nM. C/C(=N\Oc1cccc(C(F)(F)F)n1)c1cnc(C)nc1C1CCN(C(=O)Cc2c(F)cccc2F)CC1 [Compound B19, (E)-2-(2,6-difluorophenyl)-1-(4-(2-methyl-5-(1-(((6-(trifluoromethyl)pyridin-2-yl)oxy)imino)ethyl)pyrimidin-4-yl)piperidin-1-yl)ethanone] gave an IC50 of 13.9 nM. In the case of C/C(=N\Oc1ccnc(C(F)(F)F)n1)c1cnc(C)nc1C1CCN(C(=O)Cc2c(F)cccc2F)CC1 [Compound B20, (E)-2-(2,6-difluorophenyl)-1-(4-(2-methyl-5-(1-(((2-(trifluoromethyl)pyrimidin-4-yl)oxy)imino)ethyl)pyrimidin-4-yl)piperidin-1-yl)ethanone], the IC50 is reported as 15.8 nM. Work on COc1cccc(O/N=C(\C)c2cnc(C)nc2C2CCN(C(=O)Cc3c(F)cccc3F)CC2)c1 [Compound B21, (E)-2-(2,6-difluorophenyl)-1-(4-(5-(1-((3-methoxyphenoxy)imino)ethyl)-2-methylpyrimidin-4-yl)piperidin-1-yl)ethanone] yielded an IC50 of 23.7 nM. For C/C(=N\Oc1cccc(C)c1C)c1cnc(C)nc1C1CCN(C(=O)Cc2c(F)cccc2F)CC1 [Compound B22, (E)-2-(2,6-difluorophenyl)-1-(4-(5-(1-((2,3-dimethylphenoxy)imino)ethyl)-2-methylpyrimidin-4-yl)piperidin-1-yl)ethanone], the IC50 was 84 nM. In the case of Cc1ncc(/C(CO)=N/Oc2ccnc(C(F)(F)F)c2)c(C2CCN(C(=O)Cc3c(F)cccc3F)CC2)n1 [Compound B23, (1Z)-1-(4-{1-[(2,6-Difluorophenyl)acetyl]piperidin-4-yl}-2-methylpyrimidin-5-yl)-2-hydroxyethanone O-[2-(trifluoromethyl)pyridin-4-yl]oxime], the IC50 is reported as 8.4 nM. Cc1ncc(C(CF)=NOc2ccnc(C(F)(F)F)c2)c(C2CCN(C(=O)Cc3c(F)cccc3F)CC2)n1 [Compound B24, (1Z)-1-(4-{1-[(2,6-Difluorophenyl)acetyl]piperidin-4-yl}-2-methylpyrimidin-5-yl)-2-fluoroethanone 0-[2-(trifluoromethyl)pyridin-4-yl]oxime] was tested, and the IC50 was 8.7 nM. With Cc1ncc(/C(CO)=N/Oc2ccnc(C(F)(F)F)n2)c(C2CCN(C(=O)Cc3c(F)cccc3F)CC2)n1 [Compound B25, (Z)-2-(2,6-difluorophenyl)-1-(4-(5-(2-hydroxy-1-(((2-(trifluoromethyl)pyrimidin-4-yl)oxy)imino)ethyl)-2-methylpyrimidin-4-yl)piperidin-1-yl)ethanone] the IC50 was 11.2 nM. For Cc1ncc(/C(CO)=N\Oc2ccnc(C(F)(F)F)n2)c(C2CCN(C(=O)Cc3c(F)cccc3F)CC2)n1 [Compound B26, (E)-2-(2,6-difluorophenyl)-1-(4-(5-(2-hydroxy-1-(((2-(trifluoromethyl)pyrimidin-4-yl)oxy)imino)ethyl)-2-methylpyrimidin-4-yl)piperidin-1-yl)ethanone], the IC50 was 95 nM. Work on Cc1ncc(/C(CF)=N/Oc2ccnc(C(F)(F)F)n2)c(C2CCN(C(=O)Cc3c(F)cccc3F)CC2)n1 [Compound B27, (Z)-2-(2,6-difluorophenyl)-1-(4-(5-(2-fluoro-1-(((2-(trifluoromethyl)pyrimidin-4-yl)oxy)imino)ethyl)-2-methylpyrimidin-4-yl)piperidin-1-yl)ethanone] yielded an IC50 of 35.8 nM. For Cc1ncc(/C(CO)=N/Oc2cccc(C(F)(F)F)c2)c(C2CCN(C(=O)Cc3c(F)cccc3F)CC2)n1 [Compound B28, (Z)-2-(2,6-difluorophenyl)-1-(4-(5-(2-hydroxy-1-((3-(trifluoromethyl)phenoxy)imino)ethyl)-2-methylpyrimidin-4-yl)piperidin-1-yl)ethanone], the IC50 was 696 nM. Cc1ncc(/C=N/Oc2cccc(C(F)(F)F)c2)c(C2CCN(C(=O)Cc3c(F)cccc3F)CC2)n1 [Compound B30, (E)-4-(1-(2-(2,6-Difluorophenyl)acetyl)piperidin-4-yl)-2-methylpyrimidine-5-carbaldehyde O-3-(trifluoromethyl)phenyl oxime] gave an IC50 of 9.7 nM. Work on Cc1nc(C)c(C=NOc2cccc(C(F)(F)F)c2)c(C2CCN(C(=O)Cc3c(F)cccc3F)CC2)n1 [Compound B31, 4-{1-[(2,6-Difluorophenyl)acetyl]piperidin-4-yl}-2,6-dimethylpyrimidine-5-carbaldehyde O-[3-(trifluoromethyl)phenyl]oxime] yielded an IC50 of 3.4 nM.
